Patent US20210030869A1, “DOSING REGIMEN FOR AN IDO INHIBITOR” (Incyte Corporation, priority 2019, published 2021)
Entries after “also recorded” stand apart in the source; their conditions may differ. Read-outs that look alike come from different tables or passages of the source.

Tests used:
[1] = tested on: endometrial cancer; details: cited from earlier work
[2] = tested on: plasma kynurenine levels (IDO1 inhibition)
Experimental: Clinical laboratory tests are performed, including measurement of kynurenine levels in blood plasma and tumor samples.
Plasma kynurenine levels were measured by an LC-MS/MS method at World Wide Clinical Trials, Inc. Patient samples were obtained pre-dose and at defined times following treatment.
Plasma kynurenine was measured pre-treatment (C1D1) and at the indicated visits.

[3] = Safety and dose-limiting toxicity in Phase 1b dose-finding study (INCMGA 0012-102); format: in vivo; details: epacadostat 900 mg BID with ANTIBODY X 500 mg Q4W
Text: The study is an open-label, nonrandomized, multicenter, Phase 1b study with independent treatment groups.
For dose escalation, a Bayesian optimal interval (BOIN) design with a cohort size of approximately 3 evaluable participants is used. The target rate of dose-limiting toxicities (DLTs) is assumed to be 30% for each combination. At each dose level, a maximum of 9 participants are enrolled.
Participants in the dose-escalation cohorts are observed for 28 days for occurrence of DLTs.
The MTD is defined as the highest dose at which less than approximately one-third of the participants have a DLT. Dose-limiting toxicities occurring during the first 28 days of treatment guide dose escalation and determination of the MTD and RP2D. In addition, participants with late-onset safety events meeting the definition of DLT or those who had intolerable, lower grade persistent toxicity determined to be attributable to either study drug (e.g., Grade 2 peripheral neuropathy) are considered in the selection of each combination RP2D. […]
A DLT is defined as the occurrence of any of the toxicities listed in Table 4 that are possibly, probably, or definitely due to study treatment occurring from the start of treatment up to and including Day 28. All DLTs will be assessed by the investigator using Common Terminology Criteria for Adverse Events: Version 5 (CTCAE v5) criteria. […]

[4] = MSI-H or MMR deficient endometrial cancer progressed on prior therapy
[5] = first line therapy in advanced endometrial cancer

## CC(=O)O[C@H]1C(=O)[C@@]2(C)[C@H]([C@H](OC(=O)c3ccccc3)[C@]3(O)C[C@H](OC(=O)[C@H](O)[C@@H](NC(=O)c4ccccc4)c4ccccc4)C(C)=C1C3(C)C)[C@]1(OC(C)=O)CO[C@@H]1C[C@@H]2O [Paclitaxel]
[1]; endometrial cancer patients previously treated with combination of cisplatinum and doxorubicin
  RR (response rate): 25%

## CC(=O)O[C@@]12CO[C@@H]1C[C@H](O)[C@@]1(C)C(=O)[C@H](O)C3=C(C)[C@@H](OC(=O)[C@H](O)[C@@H](NC(=O)OC(C)(C)C)c4ccccc4)C[C@@](O)([C@@H](OC(=O)c4ccccc4)[C@H]21)C3(C)C [docetaxel]
[1]; endometrial cancer patients treated with paclitaxel in first line therapy
  RR (response rate): 8%

## NS(=O)(=O)NCCNc1nonc1C(=NO)Nc1ccc(F)c(Br)c1 [epacadostat, 4-({2-[(aminosulfonyl)amino]ethyl}amino)-N-(3-bromo-4-fluorophenyl)-N′-hydroxy-1,2,5-oxadiazole-3-carboximidamide]
[2]; 600 mg BID epacadostat (Group 2) vs 100 mg BID (Group 1), with ANTIBODY X 500 mg Q4W, day 8 of treatment, solid tumor patients, 3 per group
  reductions in plasma kynurenine levels compared to Group 1: increased reductions in plasma kynurenine levels
[2]; 600 mg BID epacadostat with ANTIBODY X 500 mg Q4W, after 5 weeks of treatment
  patients showing sustained reductions in plasma kynurenine: 2/3
[2]; epacadostat 600 mg BID with ANTIBODY X, pre-treatment (C1D1) vs later visits
  decreases in plasma kynurenine over visits (FIG. 1): sustained (up to 4 months) decreases in plasma kyn in most patients; also recorded: sustained (up to 4 months) decreases in plasma kynurenine levels in most patients
[2]; epacadostat 600 mg BID with ANTIBODY X, preliminary observations
  normalization of kynurenine: durable normalization of kynurenine
[3]
  maximum tolerated dose (MTD) assessment: exceeded the MTD

## Pembrolizumab: another anti-PD-1 antibody
[1]; [4]
  ORR for EC: 36%
  duration of response: 4-17 months

## carboplatin and paclitaxel
[1]; [5]
  ORR: approximately 50%
  OS: 3 years
  PFS: 13 months
